Test results published in ChEMBL document CHEMBL1201862, “PubChem BioAssay data set” (2004).
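Compound exposure: 48 hours, 5 concentrations, 96-well plates. The concentration for 50% growth inhibition is given as GI50.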 Calls of active or inactive are those of the source. Rule as the data show it: active = GI50 up to about 1.1 µM and inactive = higher.

Legend:
Assay in all cases: growth of human tumour cells (NCI), 48 h
[1] = system: 786-0
[2] = system: A498
[3] = system: A549
[4] = system: ACHN
[5] = system: BT-549
[6] = system: CAKI-1
[7] = system: CCRF-CEM
[8] = system: COLO 205
[9] = system: DU-145
[10] = system: EKVX
[11] = system: HCC 2998
[12] = system: HCT-15
[13] = system: HL-60
[14] = system: HOP-92
[15] = system: HT-29
[16] = system: Hs-578T
[17] = system: IGROV-1
[18] = system: K562
[19] = system: KM12
[20] = system: LOX IMVI
[21] = system: M14
[22] = system: MCF7
[23] = system: MDA-MB-231
[24] = system: MDA-MB-435
[25] = system: MOLT-4
[26] = system: Malme-3M
[27] = system: NCI-H226
[28] = system: NCI-H23
[29] = system: NCI-H460
[30] = system: NCI-H522
[31] = system: NCI/ADR-RES
[32] = system: OVCAR-3
[33] = system: OVCAR-4
[34] = system: OVCAR-5
[35] = system: OVCAR-8
[36] = system: PC-3
[37] = system: RPMI-8226
[38] = system: RXF 393
[39] = system: SF-268
[40] = system: SF-295
[41] = system: SF-539
[42] = system: SK-MEL-28
[43] = system: SK-MEL-2
[44] = system: SK-MEL-5
[45] = system: SN12C
[46] = system: SNB-19
[47] = system: SNB-75
[48] = system: SR
[49] = system: SW-620
[50] = system: T47D
[51] = system: TK-10
[52] = system: U-251
[53] = system: UACC-257
[54] = system: UACC-62
[55] = system: UO-31

**Q.** With `N=C(N)N/N=C\c1c(-c2cccc([N+](=O)[O-])c2)nc2sc(Cl)cn12` as the compound, how does the GI50 [1] read?
**A.** The GI50 was 3.27 µM (inactive).

**Q.** What about the GI50 [2] of the same compound?
**A.** Its GI50 is 27.4 µM (inactive).

**Q.** And the GI50 [3]?
**A.** Its GI50 is 2.84 µM (inactive).

**Q.** What about the GI50 [4] of the same compound?
**A.** The GI50 was 29.2 µM (inactive).

**Q.** And the GI50 [5]?
**A.** Its GI50 is 2.39 µM (inactive).

**Q.** And the GI50 [6]?
**A.** The GI50 was 2.33 µM (inactive).

**Q.** And the GI50 [7]?
**A.** The GI50 was 1.26 µM (inactive).

**Q.** What about the GI50 [8] of the same compound?
**A.** The GI50 was 1.93 µM (inactive).

**Q.** What about the GI50 [9] of the same compound?
**A.** Its GI50 is 2.48 µM (inactive).

**Q.** What about the GI50 [10] of the same compound?
**A.** Its GI50 is 3.15 µM (inactive).

**Q.** And the GI50 [11]?
**A.** Its GI50 is 2.31 µM (inactive).

**Q.** And the GI50 [12]?
**A.** The GI50 was 4.07 µM.

**Q.** What about the GI50 [13] of the same compound?
**A.** The GI50 was 2 µM (inactive).

**Q.** And the GI50 [14]?
**A.** The GI50 was 3.16 µM (inactive).

**Q.** And the GI50 [15]?
**A.** Its GI50 is 1.73 µM (inactive).

**Q.** What about the GI50 [16] of the same compound?
**A.** Its GI50 is 43.4 µM (inactive).

**Q.** And the GI50 [17]?
**A.** The GI50 was 1.8 µM (inactive).

**Q.** And the GI50 [18]?
**A.** The GI50 was 575 nM (active).

**Q.** And the GI50 [19]?
**A.** Its GI50 is 2.32 µM (inactive).

**Q.** And the GI50 [20]?
**A.** The GI50 was 3.7 µM (inactive).

**Q.** What about the GI50 [21] of the same compound?
**A.** The GI50 was 3.49 µM (inactive).

**Q.** What about the GI50 [22] of the same compound?
**A.** The GI50 was 2.61 µM (inactive).

**Q.** And the GI50 [23]?
**A.** The GI50 was 2.74 µM (inactive).

**Q.** What about the GI50 [24] of the same compound?
**A.** Its GI50 is 2.07 µM (inactive).

**Q.** What about the GI50 [25] of the same compound?
**A.** The GI50 was 2 µM (inactive).

**Q.** And the GI50 [26]?
**A.** The GI50 was 2.42 µM (inactive).

**Q.** What about the GI50 [27] of the same compound?
**A.** Its GI50 is 53.2 µM (inactive).

**Q.** And the GI50 [28]?
**A.** The GI50 was 2.75 µM (inactive).

**Q.** And the GI50 [29]?
**A.** The GI50 was 2.67 µM (inactive).

**Q.** What about the GI50 [30] of the same compound?
**A.** The GI50 was 1.98 µM (inactive).

**Q.** What about the GI50 [31] of the same compound?
**A.** The GI50 was > 100 µM (inactive).

**Q.** What about the GI50 [32] of the same compound?
**A.** Its GI50 is 3.24 µM (inactive).

**Q.** What about the GI50 [33] of the same compound?
**A.** Its GI50 is 1.54 µM (inactive).

**Q.** And the GI50 [34]?
**A.** The GI50 was 3.91 µM (inactive).

**Q.** And the GI50 [35]?
**A.** The GI50 was 2.75 µM (inactive).

**Q.** And the GI50 [36]?
**A.** Its GI50 is 2.13 µM (inactive).

**Q.** What about the GI50 [37] of the same compound?
**A.** Its GI50 is 2.22 µM (inactive).

**Q.** What about the GI50 [38] of the same compound?
**A.** Its GI50 is 2.19 µM (inactive).

**Q.** What about the GI50 [39] of the same compound?
**A.** Its GI50 is 3.06 µM (inactive).

**Q.** And the GI50 [40]?
**A.** Its GI50 is 2.31 µM (inactive).

**Q.** What about the GI50 [41] of the same compound?
**A.** The GI50 was 2.6 µM (inactive).

**Q.** And the GI50 [42]?
**A.** Its GI50 is 2.21 µM (inactive).

**Q.** And the GI50 [43]?
**A.** Its GI50 is 1.96 µM (inactive).

**Q.** What about the GI50 [44] of the same compound?
**A.** The GI50 was 24.4 µM (inactive).

**Q.** And the GI50 [45]?
**A.** The GI50 was 2.6 µM (inactive).

**Q.** What about the GI50 [46] of the same compound?
**A.** Its GI50 is 2.45 µM (inactive).

**Q.** What about the GI50 [47] of the same compound?
**A.** Its GI50 is 1.52 µM (inactive).

**Q.** And the GI50 [48]?
**A.** The GI50 was 610 nM (active).

**Q.** And the GI50 [49]?
**A.** The GI50 was 3.18 µM (inactive).

**Q.** What about the GI50 [50] of the same compound?
**A.** Its GI50 is 1.64 µM (inactive).

**Q.** And the GI50 [51]?
**A.** The GI50 was 2.38 µM (inactive).

**Q.** What about the GI50 [52] of the same compound?
**A.** The GI50 was 3.17 µM (inactive).

**Q.** And the GI50 [53]?
**A.** Its GI50 is 2.29 µM (inactive).

**Q.** And the GI50 [54]?
**A.** The GI50 was 27.5 µM (inactive).

**Q.** What about the GI50 [55] of the same compound?
**A.** The GI50 was 1.71 µM (inactive).
